In ChEMBL document CHEMBL5214896, “Discovery of Selective Pituitary Adenylate Cyclase 1 Receptor (PAC1R) Antagonist Peptides Potent in a Maxadilan/PACAP38-Induced Increase in Blood Flow Pharmacodynamic Model” (J Med Chem, 2021):
Residues, ends and D or L forms follow the SMILES beside them.

Columns and labels:
[1] = molecular target: T1, Vasoactive intestinal polypeptide receptor 2 (Homo sapiens, UniProt P41587); assay: Antagonist activity at VPAC2 in human SH-SY5Y cells assessed as inhibition of PACAP38-induced cAMP accumulation pre-incubated for 30 mins followed by agonist addition and measured after 75 mins by Eu-cAMP tracer based LANCE ultra cAMP assay; type: functional, cell-based
T1 sequence (P41587 whole entry): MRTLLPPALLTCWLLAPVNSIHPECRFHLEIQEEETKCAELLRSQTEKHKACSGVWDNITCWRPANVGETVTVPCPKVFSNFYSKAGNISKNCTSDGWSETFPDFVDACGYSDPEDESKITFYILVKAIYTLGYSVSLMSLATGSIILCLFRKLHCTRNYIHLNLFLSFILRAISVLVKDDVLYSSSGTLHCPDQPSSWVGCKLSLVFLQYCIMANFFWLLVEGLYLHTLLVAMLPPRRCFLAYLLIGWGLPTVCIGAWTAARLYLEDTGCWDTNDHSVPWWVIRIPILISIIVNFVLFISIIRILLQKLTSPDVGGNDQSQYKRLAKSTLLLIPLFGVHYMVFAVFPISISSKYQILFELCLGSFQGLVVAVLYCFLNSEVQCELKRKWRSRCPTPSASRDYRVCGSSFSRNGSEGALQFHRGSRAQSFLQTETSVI

[2] = molecular target: T2, Vasoactive intestinal polypeptide receptor 1 (Homo sapiens, UniProt P32241); assay: Antagonist activity at VPAC1 in human SH-SY5Y cells assessed as inhibition of PACAP38-induced cAMP accumulation pre-incubated for 30 mins followed by agonist addition and measured after 75 mins by Eu-cAMP tracer based LANCE ultra cAMP assay; type: functional, cell-based
T2 sequence (P32241 whole entry): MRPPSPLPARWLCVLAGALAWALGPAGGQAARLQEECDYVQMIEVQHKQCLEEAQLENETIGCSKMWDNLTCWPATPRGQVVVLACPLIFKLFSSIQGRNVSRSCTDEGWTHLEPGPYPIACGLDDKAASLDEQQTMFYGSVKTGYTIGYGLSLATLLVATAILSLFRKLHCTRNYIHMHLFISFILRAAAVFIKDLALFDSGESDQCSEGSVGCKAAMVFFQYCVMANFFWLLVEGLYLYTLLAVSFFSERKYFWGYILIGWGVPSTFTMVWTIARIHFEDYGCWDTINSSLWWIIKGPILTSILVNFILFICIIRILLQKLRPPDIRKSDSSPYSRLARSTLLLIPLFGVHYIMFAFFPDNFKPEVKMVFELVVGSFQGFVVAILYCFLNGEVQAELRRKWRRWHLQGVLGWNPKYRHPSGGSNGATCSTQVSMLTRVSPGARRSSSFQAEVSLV

[3] = molecular target: T3, Pituitary adenylate cyclase-activating polypeptide type I receptor (Homo sapiens, UniProt P41586); assay: Antagonist activity at PAC1R in human SH-SY5Y cells assessed as inhibition of PACAP38-induced cAMP accumulation pre-incubated for 30 mins followed by agonist addition and measured after 75 mins by Eu-cAMP tracer based LANCE ultra cAMP assay; type: cell-based
[4] = system: Rattus norvegicus; assay: In vivo Antagonist activity at Maxadilan-induced Sprague-Dawley rat assessed as reduction in Maxadilan-induced blood flow at 0.3 mg/kg,sc measured after 45 mins; type: functional; design: scale not given: the % may be the effect or the level left; conditions: 0.75 h
[5] = molecular target: T4, Pituitary adenylate cyclase-activating polypeptide type I receptor (Rattus norvegicus) (UniProt P32215); assay: Antagonist activity at PAC1R in rat RG2 cells assessed as inhibition of Maxadilan-induced cAMP accumulation pre-incubated for 30 mins followed by agonist addition and measured after 75 mins by Eu-cAMP tracer based LANCE ultra cAMP assay; type: cell-based; conditions: filed as antagonist, time 105.0 min
T4 sequence (whole entry): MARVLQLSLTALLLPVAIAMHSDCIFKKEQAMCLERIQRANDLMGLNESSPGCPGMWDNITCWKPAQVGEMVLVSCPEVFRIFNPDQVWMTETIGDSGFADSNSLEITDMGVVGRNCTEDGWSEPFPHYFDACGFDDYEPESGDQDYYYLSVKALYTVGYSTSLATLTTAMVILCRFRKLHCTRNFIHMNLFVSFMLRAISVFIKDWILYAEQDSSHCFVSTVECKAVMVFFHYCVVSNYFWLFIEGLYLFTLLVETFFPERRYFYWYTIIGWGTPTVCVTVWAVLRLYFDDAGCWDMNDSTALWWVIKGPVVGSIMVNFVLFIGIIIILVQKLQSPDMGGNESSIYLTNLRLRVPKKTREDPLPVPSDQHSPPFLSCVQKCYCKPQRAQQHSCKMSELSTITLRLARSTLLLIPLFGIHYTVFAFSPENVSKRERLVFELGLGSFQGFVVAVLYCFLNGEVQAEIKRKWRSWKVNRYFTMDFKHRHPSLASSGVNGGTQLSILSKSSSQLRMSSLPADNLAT

[6] = Clearance in Sprague-Dawley rat at 2 mg/kg,iv measured upto 6 hrs by LC-MS analysis; type: ADME, organism-based; conditions: in vivo
[7] = Cmax in Sprague-Dawley rat at 10 mg/kg,sc measured upto 6 hrs by LC-MS analysis; type: ADME, organism-based; design: dose 10 mg/kg, time < 6 hrs, route sc; conditions: in vivo
[8] = molecular target: T3, Pituitary adenylate cyclase-activating polypeptide type I receptor; assay: Antagonist activity at PAC1R in human SH-SY5Y cells assessed as inhibition of Maxadilan-induced cAMP accumulation pre-incubated for 30 mins followed by agonist addition and measured after 75 mins by Eu-cAMP tracer based LANCE ultra cAMP assay; type: cell-based; conditions: filed as antagonist, time 105.0 min
Target sequence in this assay (P41586 21-468 limits assumed): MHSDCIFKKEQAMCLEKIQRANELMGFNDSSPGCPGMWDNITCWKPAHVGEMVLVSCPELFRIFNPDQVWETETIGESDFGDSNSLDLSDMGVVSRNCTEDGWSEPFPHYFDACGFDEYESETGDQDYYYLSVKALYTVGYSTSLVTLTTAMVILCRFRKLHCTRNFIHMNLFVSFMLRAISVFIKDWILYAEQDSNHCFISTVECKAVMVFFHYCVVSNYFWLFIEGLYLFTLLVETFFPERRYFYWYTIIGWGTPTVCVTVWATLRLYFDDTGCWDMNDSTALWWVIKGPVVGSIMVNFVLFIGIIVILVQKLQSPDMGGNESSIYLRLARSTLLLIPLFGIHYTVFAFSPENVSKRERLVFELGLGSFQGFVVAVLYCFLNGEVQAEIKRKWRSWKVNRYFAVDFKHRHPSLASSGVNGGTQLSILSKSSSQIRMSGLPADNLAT

[9] = molecular target: T4, Pituitary adenylate cyclase-activating polypeptide type I receptor (Rattus norvegicus); assay: Antagonist activity at PAC1R in rat RG2 cells assessed as inhibition of PACAP38-induced cAMP accumulation pre-incubated for 30 mins followed by agonist addition and measured after 75 mins by Eu-cAMP tracer based LANCE ultra cAMP assay; type: cell-based; conditions: filed as antagonist, time 105.0 min
[10] = Half life in Sprague-Dawley rat at 2 mg/kg,iv measured upto 6 hrs by LC-MS analysis; type: ADME, organism-based; conditions: in vivo
[11] = Half life in Sprague-Dawley rat at 10 mg/kg,sc measured upto 6 hrs by LC-MS analysis; type: ADME, organism-based; conditions: in vivo
[12] = Bioavailability in Sprague-Dawley rat at 10 mg/kg,sc measured upto 6 hrs by LC-MS analysis; type: ADME, organism-based; conditions: in vivo
[13] = Cmax in Sprague-Dawley rat at 2 mg/kg,iv measured upto 6 hrs by LC-MS analysis; type: ADME, organism-based; design: time < 6 hrs, dose 2 mg/kg, route iv; conditions: in vivo
[14] = AUC (0-infinity) in Sprague-Dawley rat at 2 mg/kg,iv measured upto 6 hrs by LC-MS analysis; type: ADME, organism-based; design: dose 2 mg/kg, time < 6 hrs, route iv; conditions: in vivo
[15] = Tmax in Sprague-Dawley rat at 10 mg/kg,sc measured upto 6 hrs by LC-MS analysis; type: ADME, organism-based; conditions: in vivo
[16] = Volume of distribution at steady state in Sprague-Dawley rat at 2 mg/kg,iv measured upto 6 hrs by LC-MS analysis; type: ADME, organism-based; conditions: in vivo, read-out: Vdss
[17] = AUC (0-infinity) in Sprague-Dawley rat at 10 mg/kg,sc measured upto 6 hrs by LC-MS analysis; type: ADME, organism-based; design: dose 10 mg/kg, time < 6 hrs, route sc; conditions: in vivo
[18] = molecular target: T2, Vasoactive intestinal polypeptide receptor 1; assay: Agonist activity at VPAC1 in human SH-SY5Y cells assessed as cAMP accumulation incubated for 60 mins by Eu-cAMP tracer based LANCE ultra cAMP assay; type: functional, cell-based
[19] = molecular target: T3, Pituitary adenylate cyclase-activating polypeptide type I receptor; assay: Agonist activity at PAC1R in human SH-SY5Y cells assessed as cAMP accumulation incubated for 60 mins by Eu-cAMP tracer based LANCE ultra cAMP assay; type: cell-based
Target sequence in this assay (P41586 whole entry): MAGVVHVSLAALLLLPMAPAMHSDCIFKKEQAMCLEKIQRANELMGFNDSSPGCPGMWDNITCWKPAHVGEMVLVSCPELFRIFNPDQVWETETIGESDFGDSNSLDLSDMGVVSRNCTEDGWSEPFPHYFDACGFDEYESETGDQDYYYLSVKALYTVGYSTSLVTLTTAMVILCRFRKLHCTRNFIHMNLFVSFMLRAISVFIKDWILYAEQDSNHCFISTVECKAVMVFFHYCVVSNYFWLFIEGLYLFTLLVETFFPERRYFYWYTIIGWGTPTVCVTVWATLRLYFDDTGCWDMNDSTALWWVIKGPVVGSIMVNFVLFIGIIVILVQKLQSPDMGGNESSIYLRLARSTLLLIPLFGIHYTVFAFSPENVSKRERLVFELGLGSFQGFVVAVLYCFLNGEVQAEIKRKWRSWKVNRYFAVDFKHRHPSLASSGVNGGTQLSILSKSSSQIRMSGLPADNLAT

[20] = molecular target: T1, Vasoactive intestinal polypeptide receptor 2; assay: Agonist activity at VPAC2 in human SH-SY5Y cells assessed as cAMP accumulation incubated for 60 mins by Eu-cAMP tracer based LANCE ultra cAMP assay; type: functional, cell-based

Structure (SMILES): CSCC[C@H](NC(=O)[C@H](CCC(N)=O)NC(=O)[C@H](CCCCN)NC(=O)[C@H](CCCNC(=N)N)NC(=O)[C@H](Cc1ccc(O)cc1)NC(=O)[C@H](CCCNC(=N)N)NC(=O)[C@H](CO)NC(=O)[C@H](Cc1ccc(O)cc1)NC(=O)[C@H](CO)NC(=O)[C@H](CC(=O)O)NC(=O)[C@@H](NC(=O)[C@@H](N)Cc1ccccc1)[C@@H](C)O)C(=O)N[C@@H](C)C(=O)N[C@H](C(=O)N[C@@H](CCCCN)C(=O)N[C@@H](CCCCN)C(=O)N[C@@H](Cc1ccc(O)cc1)C(=O)N[C@@H](CC(C)C)C(=O)N[C@@H](C)C(=O)N[C@@H](C)C(=O)N[C@H](C(=O)N[C@@H](CC(C)C)C(=O)NCC(=O)N[C@@H](CCCCN)C(=O)N[C@@H](CCCNC(=N)N)C(=O)N[C@@H](Cc1ccc(O)cc1)C(=O)N[C@@H](CCCCN)C(=O)N[C@@H](CCC(N)=O)C(=O)N[C@@H](CCCNC(=N)N)C(=O)N[C@H](C(=O)N[C@@H](CCCCN)C(=O)N[C@@H](CC(N)=O)C(=O)N[C@@H](CCCCN)C(N)=O)C(C)C)C(C)C)C(C)C
- IC50 [1]: 4.5 nM
- IC50 [2]: 118 nM
- IC50 [3]: 3.5 nM

Structure (SMILES): CC[C@H](C)[C@H](NC(=O)[C@H](C)NC(=O)[C@H](CCCCN)NC(=O)[C@H](CCCNC(=N)N)NC(=O)[C@H](Cc1ccccc1)NC(=O)[C@H](CCC(N)=O)NC(=O)[C@@H]1CSSC[C@H](N)CC(=O)N[C@@H](CC(=O)O)C(=O)N[C@@H](C)C(=O)N[C@@H]([C@@H](C)O)C(=O)N1)C(=O)N[C@@H](CC(=O)O)C(=O)N[C@@H](CC(=O)O)C(=O)N[C@H]1CSSC[C@@H](C(=O)N[C@@H](CCSC)C(=O)N[C@@H](CCCCN)C(=O)N[C@@H](CCC(N)=O)C(=O)N[C@@H](CCCCN)C(=O)N[C@@H](CCCCN)C(=O)N[C@@H](CCCCN)C(=O)N[C@@H](CCC(=O)O)C(=O)N[C@@H](Cc2c[nH]c3ccccc23)C(=O)N[C@@H](CCCCN)C(=O)N[C@@H](C)C(=O)NCC(N)=O)NC(=O)[C@H](C)NC(=O)[C@H](CCCCN)NC(=O)[C@H](Cc2ccccc2)NC(=O)[C@H](C(C)C)NC(=O)[C@H](CO)NC(=O)[C@H](CO)NC(=O)[C@H](Cc2cnc[nH]2)NC(=O)[C@H](Cc2ccc(O)cc2)NC(=O)[C@H](C)NC(=O)[C@H](CCC(N)=O)NC(=O)[C@H](CCCNC(=N)N)NC(=O)[C@H](C)NC1=O (HELM PEPTIDE1{[N[C@@H](CS[*:3])CC(=O)[*:2]].D.A.T.C.Q.F.R.K.A.I.D.D.C.A.R.Q.A.Y.H.S.S.V.F.K.A.C.M.K.Q.K.K.K.E.W.K.A.G.[am]}$PEPTIDE1,PEPTIDE1,1:R3-5:R3|PEPTIDE1,PEPTIDE1,14:R3-27:R3$$$V2.0)
- Activity [4]: 110%
- IC90 [5]: 0.14 nM
- clearance [6]: 6.55 mL/min/kg
- Cmax [7]: 1110 nM
- IC90 [8]: 0.12 nM
- IC90 [9]: 0.17 nM
- half-life [10]: 58.1 min
- half-life [11]: 41.3 min
- bioavailability [12]: 28%
- Cmax [13]: 4170 nM
- AUC(0-inf) [14]: 1.16 µM·h
- Tmax [15]: 15 min
- Vd [16]: 0.217 L/kg
- AUC(0-inf) [17]: 1.65 µM·h
- IC90 ([3]; filed as antagonist, time 105.0 min): 0.42 nM

Structure (SMILES): CC[C@H](C)[C@H](NC(=O)CNC(=O)[C@H](CC(=O)O)NC(=O)[C@H](CO)NC(=O)[C@@H](N)Cc1cnc[nH]1)C(=O)N[C@@H](Cc1ccccc1)C(=O)N[C@H](C(=O)N[C@@H](CC(=O)O)C(=O)N[C@@H](CO)C(=O)N[C@@H](Cc1ccc(O)cc1)C(=O)N[C@@H](CO)C(=O)N[C@@H](CCCNC(=N)N)C(=O)N[C@@H](Cc1ccc(O)cc1)C(=O)N[C@@H](CCCNC(=N)N)C(=O)N[C@@H](CCCCN)C(=O)N[C@@H](CCC(N)=O)C(=O)N[C@@H](CCSC)C(=O)N[C@@H](C)C(=O)N[C@H](C(=O)N[C@@H](CCCCN)C(=O)N[C@@H](CCCCN)C(=O)N[C@@H](Cc1ccc(O)cc1)C(=O)N[C@@H](CC(C)C)C(=O)N[C@@H](C)C(=O)N[C@@H](C)C(=O)N[C@H](C(=O)N[C@@H](CC(C)C)C(=O)NCC(=O)N[C@@H](CCCCN)C(=O)N[C@@H](CCCNC(=N)N)C(=O)N[C@@H](CCCCN)C(=O)N[C@@H](Cc1ccc(O)cc1)C(=O)N[C@@H](CCCCN)C(=O)N[C@@H](CCC(N)=O)C(=O)N[C@@H](CCCNC(=N)N)C(=O)N[C@H](C(=O)N[C@@H](CCCCN)C(=O)N[C@@H](CC(N)=O)C(=O)N[C@@H](CCCCN)C(N)=O)C(C)C)C(C)C)C(C)C)[C@@H](C)O
- EC50 [18]: 0.03 nM
- EC50 [19]: 0.03 nM
- EC50 [20]: 0.06 nM
